Measurements reported in patent publication US10278909B2, “Composition suitable to preserve the physiological condition of skin and hair and reestablish their regenerative functions” (GIULIANI S.P.A., priority 2014, dated 2019).

Tested on: Human Hair Follicle Outer Root Sheath Cells (HHFORSC)
Experiment: ATP assay in Human Hair Follicle Outer Root Sheath Cells (Abcam ATP-assay kit, absorbance 570 nm)
Format: cell-based
Settings: 24 h treatment, carnitine 10 mg/ml, caffeine 10 mg/ml, arginine 30 mg/ml (alone or combined); for ATP % vs control: control = culture medium only = 100
Experimental: Human Hair Follicle Outer Root Sheath Cells (HHFORSC), supplied by Innoprot, are isolated by ScienCell Research Labs from the outer sheath of the root of human hair. The cell line was grown in culture medium for mesenchymal stem cells (MSCM): 500 mL basal medium, 20% fetal bovine serum (FBS), 1% growth supplement for mesenchymal stem cells (MSCGS), 1% penicillin/streptomycin (P/S solution) and maintained in 25 cm^2 culture flasks at 37° C. and 5% CO2. Before proceeding with plating the cells, the flask cells is coated with poly-L-lysine (2 μg/cm^2). Every two days, the confluent cultures are divided 1:3-1:6, after washing with DPBS (Dulbecco's Phosphate-Buffered Saline), using a solution of T/E (trypsin/EDTA solution) and TNS (Trypsin Neutralization Solution) and seeded at 2-5×^4 cell/cm^2, 37° C., 5% CO2. When the cells (HHFORSC) reach about 80% confluence, they are detached with trypsin/EDTA and seeded at a density of 1×10^6 cells/ml in 12-well plates and then incubated at 37° C., 5% CO2 (24 h). When the cells reach about 80% confluence, they are treated with samples of the following compounds or mixtures of compounds, tested at the concentrations described hereafter: • Carnitine 10 mg/ml • Caffeine 10 mg/ml • Arginine 30 mg/ml • Carnitine 10 mg/ml+Caffeine 10 mg/ml • Carnitine 10 mg/ml+Arginine 30 mg/ml • Caffeine 10 mg/ml+Arginine 30 mg/ml • Carnitine 10 mg/ml+Caffeine 10 mg/ml+Arginine 30 mg/ml The cells treated with culture medium only were used as control. All the cells were incubated at 37° C., 5% CO2 for 24 h. […] The samples were then lysed by pipetting repeatedly and centrifuged to remove insoluble materials, and finally stored on ice until use. […] The samples were incubated at room temperature for 30 minutes, in the dark. The absorbance was read at a wavelength of 570 nm with a reference filter of 630 nm in a microplate reader Biotek ELX808 using a predetermined protocol and after having correctly defined a layout of the plate. The ATP concentration was calculated by interpolating the data of the standard curve after subtraction of the blank: [ATP] (nmol/μl)=Ts/Sv where Ts is the amount of ATP from the standard curve (nmol); SV is the volume of the sample (before dilution) added to the sample wells (μl).

Compound	Δ % (increase in the production of cellular ATP vs untreated control)	ATP % vs control
C[N+](C)(C)CC(O)CC(=O)[O-] (stereo not drawn) [Carnitine]	34.164%	134.16%
Cn1c(=O)c2c(ncn2C)n(C)c1=O [Caffeine]	26.843%	126.84%
N=C(N)NCCC[C@H](N)C(=O)O [Arginine]	32.944%	132.94%
